Drawing on patent US8071606B2, “Substituted pyrazinone amides useful for activation of glucokinase” (Pfizer Inc., priority 2009, dated 2011), this text covers Emax and EC50 for nine compounds.

Assay [1] deals with T1, recombinant human glucokinase (beta cell isoform, His-tagged) (Homo sapiens, UniProt P35557).
T1 construct: Full-length glucokinase (beta cell isoform) was His-tagged at the N-terminus; His tag (N); made in house; host or cells: E. coli BL21(DE3), pBCGK vector
T1 sequence (P35557 1-465): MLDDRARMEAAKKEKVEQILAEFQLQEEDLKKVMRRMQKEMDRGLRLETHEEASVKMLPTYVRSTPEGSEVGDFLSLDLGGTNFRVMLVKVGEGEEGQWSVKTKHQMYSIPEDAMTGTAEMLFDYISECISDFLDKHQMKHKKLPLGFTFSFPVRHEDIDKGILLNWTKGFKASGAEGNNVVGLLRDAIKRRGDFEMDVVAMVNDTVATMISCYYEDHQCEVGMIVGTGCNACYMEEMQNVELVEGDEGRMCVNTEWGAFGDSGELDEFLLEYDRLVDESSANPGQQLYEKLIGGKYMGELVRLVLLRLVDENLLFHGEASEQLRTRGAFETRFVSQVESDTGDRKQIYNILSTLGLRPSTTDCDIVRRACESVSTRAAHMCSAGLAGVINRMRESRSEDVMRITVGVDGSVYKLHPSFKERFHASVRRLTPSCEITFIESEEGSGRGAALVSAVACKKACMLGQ
Kind of assay: Assay 1: activator potency and maximum activation at 5 mM glucose (coupled PK/LDH, NADH depletion, A340). The settings on record: for Emax: % Maximum Activation=(Va/Vo−1)×100; for EC50: glucokinase activation, pH 7.1, room temperature. The class given is biochemical. The procedure: (§1) Representative compounds of this invention were evaluated in biochemical assays (Assay 1 or Assay 2) to characterize their glucokinase activation properties. The recombinant human glucokinase protein utilized in both assays was prepared and purified as described below. • Beta Cell Glucokinase His-Tag Growth and Induction Conditions: BL21(DE3) cells (Invitrogen Corporation, Carlsbad, Calif.) containing pBCGK (C or N His) vector were grown at 37° C. (in 2XYT) until the OD600 was between 0.6-1.0. Expression was induced by addition of isopropylthiogalactoside to a final concentration of 0.1-0.2 mM to the cells which were then incubated overnight at 23° C. The next day, cells were harvested via centrifugation at 5000 rpm for 15 minutes at 4° C. The cell pellet was stored at −80° C. for future purification. • Beta Cell Glucokinase His-Tag Purification Conditions: A Ni-NTA (Quigan, Germantown, Md.) column (15-50 mL) was used for separation. Two buffers were prepared, 1) a lysis/nickel equilibration and wash buffer and 2) a nickel elution buffer. The lysis/equilibration/wash buffer was prepared as such: 25 mM HEPES buffer at pH 7.5, 250 mM NaCl, 20 mM imidazole, and 14 mM […] as final concentrations. The elution buffer was prepared as such: 25 mM HEPES at pH 7.5, 250 mM NaCl, 400 mM imidazole, and 14 mM β-mercaptoethanol as final concentrations. The buffers were each filtered with a 0.22 μm filter prior to use. The cell pellet (1 L culture) was resuspended in 300 mL of the lysis/equilibration buffer. The cells were then lysed (3 times) with a Microfluidics Model 110Y microfluidizer (Microfluidics Corporation, Newton, Mass.). The slurry was centrifuged with a Beckman Coulter Model LE-80K ultracentrifuge (Beckman Coulter, Fullerton, Calif.) at 40,000 rpm for 45 minutes at 4° C. The supernatant was transferred to a chilled flask. A volume of 20 μl was saved for gel analysis. A Pharmacia AKTA (GMI, Inc., Ramsey, Minn.) purification system was used for separation. The prime lines were purged with lysis/equilibration buffer. The Ni-NTA column was equilibrated with 200 mL of the lysis/equilibration buffer at a flow rate of 5 mL/minute. The supernantant was loaded over the column at 4 mL/minute and the flow-through was collected in a flask. The unbound proteins were washed with lysis/equilibration buffer at a flow rate of 5 mL/minute until the ultraviolet reaches baseline. The protein was then eluted from the column with the imidazole elution buffer via imidazole gradient 20 mM to 400 mM over 320 mL. The column was then stripped of any additional protein with 80 mL of the elution buffer. The elution fractions were each 8 mL, for a total yield of 50 samples. Fractions were analyzed by sodium dodecyl sulfate polyacrylamide (SDS-PAGE) and the fractions containing protein of interest were pooled and concentrated to 10 mL using ultrafiltration cell with a 10,000 molecular weight cut-off (MWCO) Millipore membrane (Sigma-Aldrich, St. Louis, Mo.) under nitrogen gas (60 psi). Protein was further purified by size exclusion chromatography (SEC) using a […] (320 mL) (Amersham Pharmacia, Uppsala, Sweden). SEC was equilibrated with 450 mL sizing buffer containing 25 mM HEPES pH 7.0, 50 mM NaCl, and 5 mM dithiothreitol. Concentrated protein was then loaded over SEC and elution with 400 mL sizing buffer was performed overnight at 0.5 mL/minute. The elution fractions were 5 mL each. The fractions were analyzed by SDS-PAGE and protein containing fractions were pooled. Concentration was measured using Bradford Assay/BSA Standard. Purified protein was stored in small aliquots at −80° C. Assay 1: Evaluating Activator Potency and Maximum Activation at 5 mM Glucose
Full-length glucokinase (beta cell isoform) was His-tagged at the N-terminus and purified by a Ni column followed by size exclusion chromatography as described above. […]

Assay [2] has as its target T2, recombinant human glucokinase (Homo sapiens, UniProt P35557).
T2 construct: His tag; made in house; host or cells: E. coli BL21(DE3), pBCGK vector
T2 sequence (P35557 1-465): T1 sequence (P35557 1-465)
Kind of assay: Assay 2: activator potency in a matrix assay at multiple glucose concentrations (22 compound x 16 glucose concentrations). The class given is biochemical. To be noted: concentration of compound affording a 50% reduction in the enzyme's Km for glucose, read-out: Intrinsic EC50. The procedure: as §1, with “Concentrated protein was then loaded over SEC and elution with 400 mL sizing buffer was performed overnight at 0.5 mL/minute. The elution fractions were 5 mL each.” left out, “Purified protein was stored in small aliquots at −80° C. Assay 1: Evaluating Activator Potency and Maximum Activation at 5 mM Glucose” left out

On to `Cc1ccc(NC(=O)[C@H](CC2CCOCC2)n2cc(C(F)(F)F)ncc2=O)nc1` [Example 1, (S)-N-(5-methylpyridin-2-yl)-2-(2-oxo-5-(trifluoromethyl)pyrazin-1(2H)-yl)-3-(tetrahydro-2H-pyran-4-yl)propanamide], for which, in assay [1], the maximum response (Emax) (commonly the greatest response seen or fitted, relative to the assay's reference) was determined as 100% and the EC50 – broadly, the concentration giving half of the maximal effect – was 64 µM. On the same counts, the results for `O=C(O)c1ccc(NC(=O)[C@H](CC2CCCC2)n2cc(C(F)(F)F)ncc2=O)nc1` [Example 2, (S)-6-(3-cyclopentyl-2-(2-oxo-5-(trifluoromethyl)pyrazin-1(2H)-yl)propanamido)nicotinic acid] are 117% and 0.453 µM.

In the case of `O=C(Nc1cnccn1)[C@H](CC1CCCC1)n1cc(C(F)(F)F)ncc1=O` [Example 3, (S)-3-cyclopentyl-2-(2-oxo-5-(trifluoromethyl)pyrazin-1(2H)-yl)-N-(pyrazin-2-yl)propanamide], in assay [1], the Emax is 139 to 143% and the EC50 is 5.6 to 7.1 µM. On to `Cc1ccc(NC(=O)[C@H](CC2CCCC2)n2cc(C(F)(F)F)ncc2=O)nc1` [Example 4, (S)-3-cyclopentyl-N-(5-methylpyridin-2-yl)-2-(2-oxo-5-(trifluoromethyl)pyrazin-1(2H)-yl)propanamide], for which, in assay [1], the Emax lay in the range of 99 to 100% and the EC50 lay within 0.27 to 0.37 µM. Consider `O=C(O)c1ccc(NC(=O)[C@H](CC2CCCCC2)n2cc(C(F)(F)F)ncc2=O)nc1` [Example 5, (S)-6-(3-cyclohexyl-2-(2-oxo-5-(trifluoromethyl)pyrazin-1(2H)-yl)propanamido)nicotinic acid], for which, in assay [2], the EC50 lay in the range of 220 to 310 nM. Still for that read-out and setting: in the case of `O=C(O)c1ccc(NC(=O)[C@H](CC2CCOCC2)n2cc(C(F)(F)F)ncc2=O)nc1` [Example 6, (S)-6-(2-(2-oxo-5-(trifluoromethyl)pyrazin-1(2H)-yl)-3-(tetrahydro-2H-pyran-4-yl)propanamido)nicotinic acid] it was 8900 nM; in that of `CC(C)C[C@@H](C(=O)Nc1ccc(C(=O)O)cn1)n1cc(C(F)(F)F)ncc1=O` [Example 7, (S)-6-(4-methyl-2-(2-oxo-5-(trifluoromethyl)pyrazin-1(2H)-yl)pentanamido)nicotinic acid], 3300 nM. Same read-out and setting: the result for `O=C(O)Cc1ccc(NC(=O)[C@H](CC2CCCC2)n2cc(C(F)(F)F)ncc2=O)nc1` [Example 8, (S)-2-(6-(3-cyclopentyl-2-(2-oxo-5-(trifluoromethyl)pyrazin-1(2H)-yl)propanamido)pyridin-3-yl)acetic acid] reads 2300 nM; that for `O=C(O)c1ccc(NC(=O)[C@H](CC2CCC2)n2cc(C(F)(F)F)ncc2=O)nc1` [Example 9, (S)-6-(3-cyclobutyl-2-(2-oxo-5-(trifluoromethyl)pyrazin-1(2H)-yl)propanamido)nicotinic acid], 1250 nM.
